# Measurements taken from a melting point compilation (Tetko et al.; mined from patent text by program, amines drawn as free bases though some values may be those of a salt).
row,SMILES,melting point
1,CCOC(=O)C1=C(C(C)C)Nc2n[nH]cc2C1c1ccccc1Cl (configuration not stated),211 to 213 °C
2,Cc1cc(=O)c2ccc(OCC(O)CCl)cc2o1 (configuration not stated),104 to 106 °C
3,CCCCCCCCCCCCNC(=S)NCCCCCCCCCCCC,75 to 78 °C
4,CCOC(=O)CSc1nc(O)c(C)c(O)n1,211 to 214 °C
5,CC(C)C(=O)c1cccc([N+](=O)[O-])c1,33 to 35 °C
6,CC(=NO)C(C)(C)NCCCNC(C)(C)C(COCC(O)Cn1ccnc1[N+](=O)[O-])=NO (configuration not stated),72 to 73 °C
7,O=C(NC(C(=O)O)c1ccc[nH]1)OCC(Cl)(Cl)Cl (configuration not stated),111 °C
8,OCCc1ccc(Cl)cc1CO,75 to 76 °C
9,CCCCCc1ccc(CCc2ccc(-c3ccc(CC)cc3F)cc2)cc1,40 °C
10,CCNc1nc(C)c(C(=O)OCC)c(NCCCN(C)C)c1[N+](=O)[O-],< 20 °C
11,Fc1cccc2c(OCCc3ccc(Cl)cc3)ccnc12,139 to 140 °C
12,CCC(Oc1ccccc1Cl)C(=O)OC1CC(O)C=C2C=CC(C)C(CCC3CC(O)CC(=O)O3)C21 (mixture of isomers),145 to 147 °C
13,N#Cc1ccc(NS(=O)(=O)c2ccc(Cl)cc2)cc1,182 to 184 °C
14,C[C@H]1CCCC(C)(C)[C@@H]1[C@H](O)c1ccccc1,32 to 34 °C
15,Cc1sc2cc(CC(=O)O)ccc2c1Br,150 to 152 °C
16,COc1cc2c(c(OC)c1)C1=C(CC2)C2=CCC(=O)C2(C)CC1 (configuration not stated),120 to 121 °C
17,Nc1ccc2nccnc2c1Br,155 to 156 °C
18,CN(C)[C@H]1CC[C@H](NC(=O)OC(C)(C)C)C1,65 to 67 °C

row,SMILES,melting point
1,CNCCNCc1ccc(-c2cc3ncnc(Nc4ccc5[nH]ccc5c4)c3s2)cc1,93 to 105 °C
2,CCCC12CCC(=O)C=C1c1c(cc(OC)c(Cl)c1Cl)C2O (configuration not stated),173 to 175 °C
3,O=c1[nH]nc2ccc(S)nn12,> 300 °C
4,C1=Cc2cc(/C=C/c3ccc4c(c3)C=C4)ccc21,132 °C
5,O=C1OCCN1c1ccc(F)c([N+](=O)[O-])c1,135 °C
6,CCOP(=O)(OCC)C(Nc1ccccn1)P(=O)(OCC)OCC,63 to 66 °C
7,COc1cc2c(cc1OC)CN(c1c(C)c(C)c3c(c1C)C(c1ccc(C(C)C)cc1)C(C)(C)O3)C2 (configuration not stated),153 to 155 °C
8,CC(CC(=O)O)CC(=O)CCCCCCCCCCC(=O)O (configuration not stated),84 to 85 °C
9,Cc1ccc(-c2ccc(/C=C/C(=O)Nc3ccc(CN(C)C4CCOCC4)cc3)s2)cc1,199 to 201 °C
10,CC(=O)c1[nH]cnc1C,140 to 142 °C
11,CNC(=O)C(Cc1ccc(OC)cc1)NC(=O)C(CC(C)C)C(CC(=O)NCC(=O)OC(C)(C)C)SC(C)=O (configuration not stated),192 to 194 °C
12,CCCCCCCCCCCCCCOc1ccc(C(=O)OCC)o1,39 to 40 °C
13,CNC(=O)N(OC)c1ccc(Oc2ccc3sncc3c2)cc1,108 °C
14,CCOC(=O)c1cn(C2CC2)c2c(Cl)c(F)c(F)c(C)c2c1=O,153 to 154 °C
15,CC(=O)OC1CSC(Oc2cncc(-c3ccc(F)c(C)c3)c2)C(OC(C)=O)C1OC(C)=O (configuration not stated),161 °C
16,O=C1Nc2ccccc2C12CCCC(Br)C2 (configuration not stated),196 to 199 °C
17,CSc1sc(NC(=O)OC(C)(C)C)c(NC(=O)OC(C)(C)C)c1C#N,156 to 157 °C
18,COc1cc2c3c(n(C)c(=O)c2cc1OC)-c1cc2c(cc1C3=CCCCCCBr)OCO2,182 to 185 °C

# Results, then the compound that gave them:
row,melting point,SMILES
1,> 270 °C,CNCc1cccc(C2CCN(c3c(F)c(N)c4c(=O)c(C(=O)O)cn(C5CC5)c4c3F)C2)c1 (configuration not stated)
2,165 to 166 °C,Cc1nc(N2CCN(Cc3ccc(OC(F)(F)F)cc3)C2=O)sc1C(=O)NCc1cccnc1
3,130 °C,Cc1ncc2cc(C(c3ccccc3)n3ccnc3)ccc2n1 (configuration not stated)
4,158 °C,CN1C(=O)C(C2=COc3cc4ccccc4cc3O2)=C(c2cn(C(=O)OC(C)(C)C)c3ccccc23)C1=O
5,244 to 247 °C,Cn1ncnc1COc1nn2c(-c3ccccc3)nnc2cc1-c1ccc(Cl)s1
6,185 to 187 °C,COc1cn(-c2ccc(-c3cnn(C(F)F)c3)cc2F)nc(-c2ccnn2-c2ccccc2)c1=O
7,144 to 145 °C,CCOc1nn(Cc2cccc(OCc3nc(-c4ccccc4)oc3C)n2)cc1CCC(=O)O
8,135 to 137 °C,COc1cc(C(C)=O)ccc1OCCCN1CCN(c2n[nH]c3cc(F)ccc23)CC1
9,105 °C,COC(=O)c1ccc(S(=O)(=O)Cc2c(O[C@H](Cn3ccnc3)c3ccccc3)ccc3c2CCCC3=O)cc1
10,117 to 119 °C,Cn1nc2ccccc2c1C(=O)NC1CCN(CCc2ccc(F)cc2)C1 (configuration not stated)
11,240 to 243 °C,O=C(Cc1c(-c2ccccc2)c2cc(O)c(Cl)cc2oc1=O)Nc1ccc(F)cc1C(F)(F)F
12,123 to 125 °C,COc1cc(CC(=O)NC(CC(C)C)c2cc(CC(NC(C)=O)C(=O)O)on2)ccc1NC(=O)Nc1ccccc1C (configuration not stated)
13,72.5 to 73.5 °C,O=C(SCSc1c[nH]nn1)c1ccccc1
14,87 to 89 °C,NCCOC(c1ccccc1)(c1ccccc1)c1ccccc1
15,196 °C,O=C(c1ccc(Cl)cc1)c1cc(-c2cccnc2)c(N2CCOCC2)s1
16,183 to 184 °C,Cn1c(=O)c2c(nc(Cl)n2Cc2ccc(F)cc2)n(C)c1=O
17,159 °C,CCOC(=O)Cc1c(C(=O)OCC)cnc2c(NC(=O)c3c(Cl)cccc3Cl)cccc12
18,> 270 °C,N#Cc1cnc2c(c1Nc1ccc(Oc3ccccc3)cc1)C=C1N=CN=C1C2

row,melting point,SMILES
1,298 °C,O=c1[nH]c(-c2c[nH]c3ccccc23)nc2ccc(N3CCCC3)cc12
2,218 to 219 °C,CCCc1ccc(NC(=O)c2ccccc2C(c2ccc(O)cc2)c2ccc(O)cc2)cc1
3,102 to 104 °C,Cc1cc(N2CCN(Cc3ccc(C(F)(F)F)cc3)C2=O)sc1C(=O)NCc1cccnc1
4,102 °C,O=Cc1ccc(OCCN2OCc3ccccc3C2=O)cc1
5,199 to 200 °C,O=C(O)C1Cc2c(c(Cl)cc3c(-c4ccccc4F)noc23)O1 (configuration not stated)
6,230 to 231 °C,Cn1nc(-c2ccccc2)c(N=O)c1N
7,70 to 73 °C,CC1(C)C(=O)NCCN1C(=O)C(N)Cc1ccccc1 (configuration not stated)
8,156 to 159 °C,O=C(O)Cn1cc(Cc2nc3c(F)c(F)cc(F)c3s2)c2cc(-c3ccccc3)ccc21
9,> 300 °C,O=C1Nc2ccccc2C1=c1[nH]c(=O)c(=Cc2ccc(OCc3ccccc3)cn2)[nH]c1=O
10,196 to 199 °C,CN1C(=O)CCC2(C)c3ccc(Sc4nccc5ccccc45)cc3CCC12 (configuration not stated)
11,184 to 185 °C,Nc1ccc(F)cc1CS(=O)c1nc2ccccc2[nH]1 (configuration not stated)
12,212 to 213 °C,CN(C)C(=O)Cn1c(-c2ccc(Cl)cc2)nc2cccnc21
13,116 °C,COC(=O)C(=O)c1occc1/C=C/c1ccccc1
14,340 to 342 °C,O=C1CC(c2ccc(O)cc2)=Nc2ccc(N3CCOCC3)cc21
15,166 to 167 °C,O=C(O)CC=CC12CC(c3ccccc31)c1ccccc12
16,117 to 118 °C,Cc1oc(-c2ccccc2)nc1CCc1ccc(/C=C/C=C/CO)cc1
17,> 200 °C,Cc1nc(N2CCc3ccsc3CC2)c([N+](=O)[O-])c(=O)[nH]1
18,153 to 154 °C,O=C(O)c1ccc2nc3c(c(=O)n2c1)CCC3=Cc1ccccc1
